Assay results published in publication PMC9068772, “Discovery of first-in-class nanomolar inhibitors of heptosyltransferase I reveals a new aminoglycoside target and potential alternative mechanism of action” (Scientific Reports, 2022).
Values after ≈ are worked out from the molar mass of the structure shown. Values joined by “and” are separate entries in the source; they are usually repeats but may differ in a detail not shown here. Identical values can stand only once.

Columns and labels:
[1] = test system: E. coli K12; test: Growth challenge assay, 96-well plate; assay type: cell-based; conditions: for Inflection point in cell viability: E. coli K12, growth rate, Fig. 9; for Effect on growth of E. coli K12: increasing concentrations, 18-h period
Description: (§1) The assays were prepared by plating E. coli K12 onto an LB-agar plate and grown overnight (12–18 h)[60]. A colony forming unit was chosen to inoculate 10 mL of fresh LB media in a tightly capped 15 mL falcon tube and placed in an incubator (no agitation) at 37 °C for exactly 24 h to increase the number of viable cells for inoculation of the plate and thusly reproducibility in highly variable growth patterns. A 96-well plate was then filled with a variety of inhibitor concentrations taken from stock solutions made up in ultra-pure water allowing for one row to remain free of the inhibitor. Each inhibitor concentration was given 3-wells to ensure a triplicate of data is collected at once. With the same fresh media used to make the overnight culture, the overnight growths were added to the plate in a 1:1000 dilution (total volume 200 uL) and the plate sealed with clear adhesive plastic sealant. One row has been designated for uncultured media to be used for pre-blanking measurements and to ensure that the media isn’t growing spontaneously.
An experimental protocol was created using the Softmax Pro® software for a Molecular Devices Spectramax M5 plate reader. The parameters have been selected such that it collects pre-blanked absorbance readings at 600 nm wavelengths every 30 min at 37 °C with shaking every 10 min at 400 s intervals for 18 h total. Absorbance values were corrected for path length using the lateral reading path correction (8) and are plotted overtime to establish a growth curve.8 l=4×V/π×d^2 l = path length from Beer’s law ( A=εlc ), V = volume (cm^3), d = diameter of well (cm).
Data from the growth assay were analyzed using MATLAB R2018A. The derivative of the curve was calculated and the maximum rate as determined by the derivative was reported as the growth rate for that condition.

[2] = test system: LPS production in E. coli K12; test: LPS visualization gels of lipid extracts from growth challenge samples; assay type: cell-based; conditions: for Concentration range over which LPS production decreases: E. coli K12, lipids from 4 × 10^8 cells; for IC50: Escherichia coli, E. coli K12, silver-stained gels, inflection point of sigmoid fit, read-out: IC50 of LPS production (LPS band pixel density)
Description: as §1
(§2) As previously established, lipid extraction occurs through lysis of surface polysaccharides with a lysis buffer containing 1% SDS, 20% glycerol, 100 mM Tris–HCl and 0.04% bromophenol blue at a pH 6.8[61]. The cellular concentrations from each well were determined using the last collected OD600 corrected using Eq. (8), centrifuged and resuspended in the correct volume of lysis buffer to obtain 4 × 10^8 cells/100 µL solution. Addition of Proteinase K at 1 mg/mL concentration was incubated for 1 h at 37 °C. These samples were then loaded onto a 15% separating, 6% stacking SDS–polyacrylamide gel (recipes received from https://www.bio-rad.com/) in a 19:1 acrylamide to bis-acrylamide ratio and run with a voltage gradient from 50–150 V. The gels were then stained using the protocol described previously with no modifications[62] and imaged using a scanner.
(§3) Relative LPS band density was determined using analysis methods provided by ImageJ software. The band pixel density were analyzed relative to a purified sample of heptosylated O-deacylated Lipid A at 100 nM. The plot was generated of relative band density vs. concentration of inhibitor[63].

[3] = test system: capsular polysaccharide (cps) band of E. coli K12 total lipid extract; test: Capsular polysaccharide band density on silver-stained gels; assay type: cell-based
Description: as §1, §2, §3

[4] = target: T1, HepI (Escherichia coli, UniProt P24173); test: Circular dichroism thermal melt of HepI; assay type: binding, E. coli K12; conditions: CD melt; for Increase in unfolding compared to apo HepI: HepI plus inhibitor, no ODLA; for Difference in melting temperature of HepI•ODLA complex caused by inhibitor: destabilization of HepI•ODLA
T1 construct: made in house; host or cells: E. coli One Shot BL-21-AI
T1 sequence (P24173 whole entry): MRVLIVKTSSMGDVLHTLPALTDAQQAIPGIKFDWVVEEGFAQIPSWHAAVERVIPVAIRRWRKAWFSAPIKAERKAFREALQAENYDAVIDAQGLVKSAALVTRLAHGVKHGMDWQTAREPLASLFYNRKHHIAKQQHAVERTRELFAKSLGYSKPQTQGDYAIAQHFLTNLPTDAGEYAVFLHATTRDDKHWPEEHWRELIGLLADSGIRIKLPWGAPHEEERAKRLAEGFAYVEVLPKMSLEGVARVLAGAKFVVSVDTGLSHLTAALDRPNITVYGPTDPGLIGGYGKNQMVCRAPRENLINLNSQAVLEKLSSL
Description: Circular dichroism melt experiments were performed in a Jasco J-810 spectropolarimeter in Starna 21-Q-2 cells (minimum volume 400 µL) sealed with Teflon tape to prevent evaporation. Parameters include 3 accumulations of data collected between 195–275 nm as a function of temperature (10–95 °C with 5° increments) at a ramp rate of 2°/min and a scanning rate of 50 nm/min. Samples were prepared by diluting a mixture of 5 μM HepI and some combination of 250 μM substrate/product and/or 100 μM inhibitor in a buffer of 10 mM Tris–HCl and 100 mM KCl (pH = 7.5). CD data was analyzed via in house script written in MATLAB R2018A that average a set of triplicate data, normalizes to a percent unfolded (assuming the protein is fully folded at 5 °C) at 222 nm as a function of temperature and fits to a sigmoid curve to determine the melt temperature (TM).

Structure (SMILES): [H]/N=C(/N)N[C@H]1[C@H](O)[C@@H](O)[C@H](O[C@@H]2O[C@@H](C)[C@](O)(C=O)[C@H]2O[C@@H]2O[C@@H](CO)[C@H](O)[C@@H](O)[C@@H]2NC)[C@@H](N/C(N)=N\[H])[C@@H]1O [Streptomycin]
- Inflection point in cell viability [1]: 25 ng/mL
- Effect on growth of E. coli K12 [1]: challenges the growth
- Concentration range over which LPS production decreases [2]: 25 to 27.5 ng/mL
- IC50 [2]: 0.0262 ± 0.001 µg/mL (≈ 0.045 µM)
- Relative pixel density from cps band ([3]; 12.5 ng/mL streptomycin, relative to 0 ng/mL = 1): 1.019
- Relative pixel density from cps band ([3]; 15 ng/mL streptomycin): 1.115
- Relative pixel density from cps band ([3]; 17.5 ng/mL streptomycin): 1.105
- Relative pixel density from cps band ([3]; 20 ng/mL streptomycin): 1.323
- Relative pixel density from cps band ([3]; 22.5 ng/mL streptomycin): 1.458
- Relative pixel density from cps band ([3]; 25 ng/mL streptomycin): 1.335
- Relative pixel density from cps band ([3]; 27.5 ng/mL streptomycin): 1.687
- Relative pixel density from cps band ([3]; 30 ng/mL streptomycin): 1.477
- Relative pixel density from cps band ([3]; 32.5 ng/mL streptomycin): 1.070
- Relative pixel density from cps band ([3]; 35 ng/mL streptomycin): 0.654
- Increase in unfolding compared to apo HepI [4]: ~ 20% and 15–20%
- Difference in melting temperature of HepI•ODLA complex caused by inhibitor [4]: not observed
- Melting temperature of HepI•ODLA complex with inhibitor ([4]; inhibitor added to HepI•ODLA): no different from substrate or product alone

Structure (SMILES): NC[C@H]1O[C@H](O[C@H]2[C@H](O)[C@@H](O[C@H]3O[C@H](CO)[C@@H](O)[C@H](N)[C@H]3O)[C@H](N)C[C@@H]2N)[C@H](N)C[C@@H]1O [Tobramycin]
- Inflection point in cell viability [1]: around 6.5 ng/mL
- Effect on growth of E. coli K12 [1]: challenges the growth
- Concentration at which no LPS is detectible ([2]; E. coli K12): ≥ 7.5 ng/mL
- Concentration range over which LPS production decreases [2]: 5 to 7 ng/mL
- IC50 [2]: 0.0064 ± 0.0001 µg/mL (≈ 0.0137 µM)
- Relative pixel density from cps band ([3]; 4 ng/mL tobramycin, relative to 0 ng/mL = 1): 1.752
- Relative pixel density from cps band ([3]; 4.5 ng/mL tobramycin): 4.293
- Relative pixel density from cps band ([3]; 5 ng/mL tobramycin): 7.121
- Relative pixel density from cps band ([3]; 5.5 ng/mL tobramycin): 5.786
- Relative pixel density from cps band ([3]; 6 ng/mL tobramycin): 3.692
- Relative pixel density from cps band ([3]; 6.5 ng/mL tobramycin): 2.319
- Relative pixel density from cps band ([3]; 7 ng/mL tobramycin): 1.163
- Relative pixel density from cps band ([3]; 7.5 ng/mL tobramycin): 1.421
- Relative pixel density from cps band ([3]; 8 ng/mL tobramycin): 1.641
- Relative pixel density from cps band ([3]; 9 ng/mL tobramycin): 1.606
- Increase in unfolding compared to apo HepI [4]: 20%
- Melting temperature (Tm) of HepI with ligand ([4]; HepI plus ligand alone): ~ 37 °C
- Melt of HepI with ADPH and inhibitor ([4]; compared with HepI with ADPH alone): no changes from HepI with ADPH alone
- Difference in melting temperature of HepI•ODLA complex caused by inhibitor [4]: > 30 °C
- Extent of unfolding of HepI•ODLA complex with inhibitor ([4]; inhibitor added to HepI•ODLA): about 70%
- Melting temperature of HepI•ODLA complex with inhibitor ([4]; inhibitor added to HepI•ODLA): ~ 58 °C
